Assay results as given in patent publication EP1581477B1, “CYCLOALKENE DICARBOXYLIC ACID COMPOUNDS AS ANTI-INFLAMMATORY, IMMUNOMODULATORY AND ANTI-PROLIFERATORY AGENTS” (4SC AG, priority 2002, dated 2004).

Biological target: T1, human DHODH (Homo sapiens, UniProt Q02127)
T1 construct: Prof; M. Löffler, Marburg, Germany (gift)
Experiment: Inhibition assay of DHODH activity (spectrophotometric, 2,6-dichloroindophenol reduction)
Assay type: biochemical
Conditions: recombinant human DHODH; 50 mM TrisHCl, pH 8,0, 30°C; absorption at 600 nm
Protocol: 3. Inhibition Assay of DHODH activity
The standard assay mixture contained 50 µM decyclo ubichinone, 100 µM dihydroorotate, 60 µM 2,6-dichloroindophenol, as well as 20 mU DHODH The volume activity of the recombinant enzyme used was 30 U/ml. Measurements were conducted in 50 mM TrisHCl (150 mM KCI, 0,1% Triton X-100, pH 8,0) at 30°C in a final volume of 1 ml. The components were mixed, and the reaction was started by adding dihydroorotate. The course of reaction was followed by spectrophotometrically measuring the decrease in absorption at 600 nm for 2 min.
Inhibitory studies were conducted in a standard assay with additional variable amounts of inhibitor.
These investigations were carried out with recombinant human as well as with recombinant murine DHODH provided by Prof. M. Löffler, Marburg, Germany [M. Löffler, Chem. Biol. Interact. 124, (2000), 61-76].

T1 sequence (Q02127 whole entry): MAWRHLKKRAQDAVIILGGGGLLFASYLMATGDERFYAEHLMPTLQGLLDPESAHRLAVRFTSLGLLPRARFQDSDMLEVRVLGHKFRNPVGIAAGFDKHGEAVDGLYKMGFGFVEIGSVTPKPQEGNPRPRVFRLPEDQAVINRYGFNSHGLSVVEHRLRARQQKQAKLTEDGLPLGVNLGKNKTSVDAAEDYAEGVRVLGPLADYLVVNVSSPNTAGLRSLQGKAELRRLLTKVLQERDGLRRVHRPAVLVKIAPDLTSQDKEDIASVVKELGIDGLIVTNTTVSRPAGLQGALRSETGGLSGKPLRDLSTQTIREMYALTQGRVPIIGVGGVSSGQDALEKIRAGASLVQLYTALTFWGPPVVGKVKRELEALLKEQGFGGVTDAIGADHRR

“2-(1',3'di-methoxy-3,5-difluoro-biphenyl-4-ylcarbamoyl)-3-hydroxy-cyclopent-1-enecarboxylic acid [Example 9]” and “2-(1',3'di-methoxy-3,5-difluoro-biphenyl-4-ylcarbamoyl)-5-hydroxy-cyclopent-1-enecarboxylic acid [Example 10]” cannot be ordered by IC50: < 5000 nM for the first, < 5000 nM for the second.

COc1cccc(-c2ccc(NC(=O)C3=C(C(=O)O)C(C(=O)O)CC3)c(F)c2)c1 (stereo not drawn) [Example 1, 3-(3-Fluoro-3'-methoxy-biphenyl-4-ylcarbamoyl)-cyclopent-2-ene-1,2-dicarboxylic acid] and COc1cccc(-c2ccc(NC(=O)C3=C(C(=O)O)CCC3C(=O)O)c(F)c2)c1 (stereo not drawn) [Example 2, 2-(3-Fluoro-3'-methoxy-biphenyl-4-ylcarbamoyl)-cyclopent-1-ene-1,3-dicarboxylic acid] cannot be ordered by IC50: > 5000 nM for the first, > 5000 nM for the second.

Going from COC(=O)C1=C(C(=O)Nc2ccc(-c3cccc(OC)c3)cc2F)CCC1 [Example 3, 2-(3-Fluoro-3'-methoxy-biphenyl-4-ylcarbamoyl)-cyclopent-1-enecarboxylic acid methyl ester] to O=C(O)C1=C(C(=O)Nc2c(F)c(F)c(-c3cccc(OC(F)(F)F)c3)c(F)c2F)C(O)CC1 (stereo not drawn) [Example 5, 3-Hydroxy-2-(2,3,5,6-tetrafluoro-3'-trifluoromethoxy-biphenyl-4-ylcarbamoyl)-cyclopent-1-enecarboxylic acid], the IC50 falls from > 5000 nM to < 1000 nM. The second is the more potent here.

O=C(O)C1=C(C(=O)Nc2c(F)c(F)c(-c3cccc(OC(F)(F)F)c3)c(F)c2F)CCC1O (stereo not drawn) [Example 6, 5-Hydroxy-2-(2,3,5,6-tetrafluoro-3'-trifluoromethoxy-biphenyl-4-ylcarbamoyl)-cyclopent-1-enecarboxylic acid] and CCOc1cccc(-c2cc(F)c(NC(=O)C3=C(C(=O)O)CCC3O)c(F)c2)c1 (stereo not drawn) [Example 7, 2-(3'-Ethoxy-3,5-difluoro-biphenyl-4-ylcarbamoyl)-3-hydroxy-cyclopent-1-enecarboxylic acid] cannot be ordered by IC50: < 1000 nM for the first, < 1000 nM for the second.

CCOc1cccc(-c2cc(F)c(NC(=O)C3=C(C(=O)O)C(O)CC3)c(F)c2)c1 (stereo not drawn) [Example 8, 2-(3'-Ethoxy-3,5-difluoro-biphenyl-4-ylcarbamoyl)-5-hydroxy-cyclopent-1-enecarboxylic acid] and O=C(O)C1=C(C(=O)Nc2c(F)cc(-c3ccccc3F)cc2F)C(O)CC1 (stereo not drawn) [Example 11, 3-Hydroxy-2-(3,5,2'-trifluoro-biphenyl-4-ylcarbamoyl)-cyclopent-1-enecarboxylic acid] cannot be ordered by IC50: < 1000 nM for the first, < 1000 nM for the second.

COc1ccccc1-c1ccc(NC(=O)C2=C(C(=O)O)CCC2O)cc1Cl (stereo not drawn) [Example 13, 2-(2-Chloro-2'-methoxy-biphenyl-4-ylcarbamoyl)-3-hydroxy-cyclopent-1-enecarboxylic acid] and COc1ccccc1-c1ccc(NC(=O)C2=C(C(=O)O)C(O)CC2)cc1Cl (stereo not drawn) [Example 14, 2-(2-Chloro-2'-methoxy-biphenyl-4-ylcarbamoyl)-5-hydroxy-cyclopent-1-enecarboxylic acid] cannot be ordered by IC50: < 1000 nM for the first, < 1000 nM for the second.

O=C(O)C1=C(C(=O)Nc2c(F)cc(-c3ccccc3Cl)cc2F)C(O)CC1 (stereo not drawn) [Example 15, 2-(2'-Chloro-3,5-difluoro-biphenyl-4-ylcarbamoyl)-3-hydroxy-cyclopent-1-enecarboxylic acid] and O=C(O)C1=C(C(=O)Nc2c(F)cc(-c3ccccc3Cl)cc2F)CCC1O (stereo not drawn) [Example 16, 2-(2'-Chloro-3,5-difluoro-biphenyl-4-ylcarbamoyl)-5-hydroxy-cyclopent-1-enecarboxylic acid] cannot be ordered by IC50: < 1000 nM for the first, < 1000 nM for the second.

In the case of COc1cccc(-c2ccc(NC(=O)C3=C(C(=O)O)CCC3O)c(F)c2)c1 (stereo not drawn) [Example 17, 2-(3-Fluoro-3'-methoxy-biphenyl-4-ylcarbamoyl)-3-hydroxy-cyclopent-1-enecarboxylic acid], the IC50 is reported as < 1000 nM.
